Our source for the TGI values is PubChem BioAssay (NCI).

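Where inhibition never reached the appropriate level, the endpoint shown equals the highest concentration tested. Otherwise, values were interpolated linearly from a five-concentration, 48-hour dose response in 96-well plates. At the TGI there is no net growth.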 A value given as a limit tells only on which side of the number the result lay.

What all share (test): DTP human tumour cell line panel, 48 h
Assay [1] concerns HCT-15 colon.
Assay [2] deals with U251 CNS.
For assay [3], the system named is RXF 393 renal.
Assay [4] concerns 786-0 renal.
Assay [5] relates to IGROV1 ovarian.
Assay [6] deals with UACC-62 melanoma.
Assay [7] concerns SF-539 CNS.
The test system of assay [8] is RPMI-8226 leukemia.
The subject of assay [9] is SK-MEL-28 melanoma.
The test system of assay [10] is M14 melanoma.
For assay [11], the system named is OVCAR-8 ovarian.
For assay [12], the system named is SN12C renal.
For assay [13], the system named is EKVX NSCLC.
Assay [14] has as its system SK-MEL-2 melanoma.
The subject of assay [15] is KM12 colon.
For assay [16], the system named is HCC-2998 colon.
The test system of assay [17] is OVCAR-5 ovarian.

Broadly, the TGI is the concentration at which net growth stops. Turning to `Cn1c2c(c3ccccc31)CCN(CCN1CCN(c3ccccc3)CC1)C2=O`, the total growth inhibition concentration (TGI) in assay [1] is above 100 µM; in [2], above 100 µM; in assay [3] it was 83.4 µM; in assay [4], above 100 µM; in [5] it was above 100 µM; in assay [6], above 100 µM. Besides, the total growth inhibition concentration (TGI) in assay [7], in [8], in assay [9], in [10], in assay [11] and in assay [12] was above 100 µM throughout. The TGI in assay [13] is above 100 µM.
Turning to `CC(=O)O[C@]12CCCCC1C1(O)C(O)CCCCC12` (some centres undefined), the TGI in [1], in assay [2], in assay [3], in assay [4], in assay [6] and in [14] was above 100 µM throughout. Besides, the total growth inhibition concentration (TGI) in assay [8], in [9], in assay [10], in assay [15], in [11] and in [12] was above 100 µM in each case. Moreover, the TGI in assay [13] is above 100 µM.
Regarding `Cc1ccccc1C1OC(=O)c2ccccc21` (centres undefined), the TGI in assay [16], in assay [1], in assay [2], in assay [3], in [4] and in assay [5] was above 100 µM in each case. The TGI in [6], in assay [14], in assay [17], in [7], in assay [9] and in assay [10] was above 100 µM in each case. The concentration for total growth inhibition (TGI) in assay [15], in assay [11], in assay [12] and in assay [13] was above 100 µM in each case.
Take `CC1OC(n2ccc(=O)[nH]c2=O)C=C(OC(=O)c2ccccc2)C1=O` (centres undefined): the concentration for total growth inhibition (TGI) is above 100 µM in [1]; 81.3 µM in assay [2]; above 100 µM in [3]; above 100 µM in assay [4]; above 100 µM in assay [5]; above 100 µM in assay [6]. The TGI in assay [7], in assay [8], in [9], in [10], in [11] and in assay [12] was above 100 µM in each case. In assay [13], this compound displayed a total growth inhibition concentration (TGI) above 100 µM.
On to `CC(=O)N1c2ccccc2C2=CC3C4C(=O)N(c5ccccc5)C(=O)C4C21C1C(=O)N(c2ccccc2)C(=O)C31` (centres undefined), for which the concentration for total growth inhibition (TGI) in assay [16], in assay [1], in assay [2], in assay [4], in assay [5] and in assay [6] was above 100 µM throughout. In addition, the total growth inhibition concentration (TGI) in assay [14] was 56.2 µM; in assay [17] it was above 100 µM; in assay [7] it was 6.66 µM; in [9], above 100 µM; in assay [15] it was above 100 µM; in assay [11], above 100 µM. The compound also came in with a concentration for total growth inhibition (TGI) in [12] above 100 µM.
`Nc1nc(NCCO)c(N=O)c(=O)[nH]1`: the TGI in [1], in [2], in [3], in assay [4], in assay [5] and in assay [6] was above 100 µM each time. Moreover, the TGI in assay [14], in assay [17], in [7], in [8], in [9] and in assay [10] was above 100 µM each time. For the same compound, the total growth inhibition concentration (TGI) in [15], in assay [11], in [12] and in assay [13] was above 100 µM each time.
As to `NC(=O)C#CC#CC#CCO`, the TGI in assay [16] turned out to be 3.1 µM; in assay [1], 3.5 µM; in [2] it was 3.72 µM; in assay [3] it was 3.66 µM; in assay [4] it was 2.93 µM; in assay [5], 7.4 µM. In addition, the TGI was 4.32 µM in assay [6]; 4.9 µM in assay [14]; 33.1 µM in assay [17]; 3.58 µM in [9]; 3.63 µM in assay [10]; 12.2 µM in assay [15]. The TGI in assay [11] is 3.42 µM; in [12] it was 3.76 µM.
`CCOCN1COCN=C1NC#N`: the TGI is above 100 µM in assay [16]; above 100 µM in [1]; above 100 µM in assay [2]; 34.7 µM in assay [3]; above 100 µM in [4]; above 100 µM in assay [5]. Moreover, the TGI in [6], in assay [14], in [17], in assay [7], in assay [9] and in [10] was above 100 µM throughout. In addition, the concentration for total growth inhibition (TGI) in assay [15], in [11], in [12] and in assay [13] was above 100 µM in each case.
